According to ChEMBL document CHEMBL4665731, “Antifungal trichothecene sesquiterpenes obtained from the culture broth of marine-derived Trichoderma cf. brevicompactum and their structure-activity relationship” (2020):
≈ marks a conversion by molar mass, not a printed value.

How the values were obtained:
Assay type in all cases: functional
Aspergillus fumigatus = assay: Antifungal activity against Aspergillus fumigatus NBRC 96918 assessed as reduction in fungal growth incubated for 48 hrs by CLSI broth microdilution method
Rhizopus arrhizus = assay: Antifungal activity against Rhizopus oryzae NBRC 31005 assessed as reduction in fungal growth incubated for 24 hrs by CLSI broth microdilution method
Candida albicans = assay: Antifungal activity against Candida albicans NBRC1594 assessed as reduction in fungal growth incubated for 24 hrs by CLSI broth microdilution method
Cryptococcus neoformans = assay: Antifungal activity against Cryptococcus neoformans ATCC 14116 assessed as reduction in fungal growth incubated for 72 hrs by CLSI broth microdilution method

SMILES: C[C@@H]1[C@H](O)[C@@H](C)/C=C/C=C/C=C/C=C/C=C/C=C/C=C/[C@H](O[C@@H]2O[C@H](C)[C@@H](O)[C@H](N)[C@@H]2O)C[C@@H]2O[C@](O)(C[C@@H](O)C[C@@H](O)[C@H](O)CC[C@@H](O)C[C@@H](O)CC(=O)O[C@H]1C)C[C@H](O)[C@H]2C(=O)O [AMPHOTERICIN B]
- MIC90 (Aspergillus fumigatus): 2 µg/mL (≈ 2.16 µM)
- MIC90 (Rhizopus arrhizus): 1 µg/mL (≈ 1.08 µM)
- MIC90 (Candida albicans): 0.5 µg/mL (≈ 0.541 µM)
- MIC90 (Cryptococcus neoformans): 1 µg/mL (≈ 1.08 µM)
